The experiment relates to photoreceptor neuron cells. Description: Screening test of vitamin B12 concentration (Q-PCR of photoreceptor neuron cells). Format: cell-based, human. The protocol:
The screening test of vitamin B12 concentration was carried out with reference to Example 2.3, and the expression difference of photoreceptor neuron cells obtained by using different concentrations of vitamin B12 was compared. See Table 2 and Table 4 for the details of primers used. […] Therefore, the concentration of vitamin B12 used in the present invention was the optimal concentration.

As to vitamin B12, where the note is “Q-PCR, FIG. 6b”, the “photoreceptor non-specific marker PAX6 versus concentration” value is listed as “positively correlated”. Moreover, where the note is “concentration too high”, the “relative expression of PAX6” value is “decrease in the relative expression of PAX6”.

The values above are taken from patent US20240052305A1, “CHEMICAL INDUCTION METHOD FOR PHOTORECEPTOR NEURON CELLS” (IREGENE THERAPEUTICS LTD, priority 2020, published 2024).
